Assay [1] relates to NIC-evoked [3H]DA release from rat striatal slices. Kind of assay: Nicotine-evoked [3H]dopamine release assay, superfused rat striatal slices. The class given is cell-based. As to conditions: 100 nM analog superfused 60 minutes prior to NIC (10 μM), percent of that in the absence of analog. Here is the method:
Rat striatal slices (500 μm thickness, 6-8 mg wet weight) were incubated for 30 minutes in Krebs buffer (118 mM NaCl, 4.7 mM KCl, 1.2 mM MgCl2, 1.0 mM NaH2PO4, 1.3 mM CaCl2, 11.1 mM glucose, 25 mM NaHCO3, 0.11 mM L-ascorbic acid and 0.004 mM disodium EDTA; pH 7.4, and saturated with 95% O2/5% CO2) in a metabolic shaker at 34° C. Slices were rinsed with 15 mL of fresh buffer and incubated for an additional 30 minutes in fresh buffer containing 0.1 μM [^3H]dopamine (DA; 6 slices/3 mL). Subsequently, slices were rinsed with 15 mL of fresh buffer and transferred to a glass superfusion chamber. Slices were superfused (1.0 mL/min) for 60 minutes with Krebs buffer containing nomifensine (10 μM) and pargyline (10 μM) and maintained at 34° C., pH 7.4 with continual aeration (95% O2/5% CO2). Two five minute samples (5 mL each) were collected to determine basal outflow of [^3H]DA. Analogs were added to the superfusion buffer after the collection of the second sample and remained in the buffer until 12 consecutive five minute samples were collected. Subsequently, S-(−)-nicotine (10 μM) was added to the buffer and an additional 12 consecutive five minute samples were collected. At the end of the experiment, each slice was solubilized and the [^3H] content of the tissue determined.
Radioactivity in the superfusate and tissue samples were determined by liquid scintillation spectroscopy. Fractional release for tritium collected in each sample was divided by the total tritium present at the time of sample collection and was expressed as a percentage of total tritium. Basal [^3H] outflow was calculated from the average of the tritium collected in the two five-minute samples just before addition of the analog. The sum of the increase in collected tritium resulting from either exposure to the test compound or exposure to S-(−)-nicotine in the absence cod presence of the test compound equaled total [^3H] overflow. [^3H] Overflow was calculated by subtracting the [^3H] outflow during an equivalent period of prestimulation from the values in samples collected during and after drug exposure. Inasmuch as the radiolabelled compounds were not separated and identified, the tritium in the superfusate is referred to as either [^3H] outflow or [^3H] overflow, rather than [^3H]DA. [^3H] Overflow primarily represents [^3H]DA in the presence of nomifesine and pargyline in the superfusion buffer. […]
Analogs were also evaluated for their ability to inhibit NIC evoked [^3H]DA release. In these experiments, the striatal slices were superfused for 60 minutes with 100 nM concentration of the analogs prior to NIC (10 μM) exposure. Antagonist activity was evaluated by comparing the NIC-evoked [^3H] overflow in the absence and presence of the analogs. The relative order of potency of the analogs for inhibition of NIC-evoked [^3H]DA release from rat striatal slices is illustrated in Table 1.
Data are % inhibition at 100 nM concentration of analog for at least 1-3 independent experiments. Specific binding in the [^3H]NIC binding assay is calculated at the difference between the total binding of [^3H]NIC and nonspecific binding in the presence of 10 μM cold nicotine. Specific binding for the [^3H]MLA binding assay is calculated as the difference between the total binding of 2.5 nM [^3H]MLA to the receptors alone and its nonspecific binding in the presence of 1 μM cold MLA. Analog-induced inhibition of nicotine-evoked [^3H]DA release is calculated as a percent of that in the absence of analog.

Assay [2] addresses T1, α7 nicotinic receptor subtype expressed in Xenopus oocytes (Rattus norvegicus, UniProt Q05941).
T1 construct: expressed in transfected cells; host or cells: Xenopus laevis oocytes injected with subunit cRNA
The experiment in a line: Inhibition of ACh evoked current through nicotinic receptors expressed in Xenopus oocytes (α7). Particulars: co-application with acetylcholine; compared with α4β2, α3β2, α3β4; FIGS. 1-3. The class given is cell-based. Here is the method:
Rat nicotinic receptor cDNAs clones were linearized and purified, and RNA transcripts were prepared in vitro using the appropriate mMessage mMachine kit. Mature (>9 cm) female Xenopus laevis African toads (Nasco, Ft. Atkinson, Wis.), housed in the Division of Lab Animal Resources at the University of Florida were used as a source of oocytes. Prior to surgery, frogs were anesthetized by placing the animal in a 1.5 g/L solution of MS222 for 30 minutes. Oocytes were removed from an incision made in the abdomen. In order to remove the follicular cell layer, harvested oocytes were treated with 1.25 mg/mL collagenase for 2 hours at room temperature in calcium-free Barth's solution (88 mM NaCl, 1 mM KCl, 2.38 mM NaHCO3, 0.82 mM MgSO4, 15 mM HEPES, pH 7.6, 0.1 mg/mL gentamicin sulfate). Subsequently, stage 5 oocytes were isolated and injected with 5-20 ng in 50 nL each of the appropriate subunit cRNAs. Recordings were made 2 to 15 days after injection.
Electrophysiology experiments were conducted using OpusXpress 6000A (Axon instruments, Union City, Calif.), or manual oocyte two-electrode voltage-clamp systems as previously reported (Stokes et al., 2004). […]
Each oocyte received two initial control applications of ACh, then a nicotine or analog application, and then a follow-up control application of ACh. […] Responses to each nicotine or analog application were calculated relative to the preceding ACh control responses in order to normalize the data, compensating for the varying levels of channel expression among the oocytes. […] Responses for α7 receptors were calculated as net charge (Papke et al., 2002). For subtypes other than α7, responses were calculated from the peak current amplitudes. Means and standard errors (SEM) were calculated from the normalized responses of at least four oocytes for each drug concentration. […]
For concentration-response relations, data derived from net-charge analyses were plotted using Kaleidagraph 3.0.2 (Abelbeck Software; Reading, Pa.) and curves were generated from the Hill equation […]

Structures are written as SMILES.

Here are results for three compounds from US8940774B2, “Tris-Quaternary Ammonium Salts and Methods for Modulating Neuronal Nicotinic Acetylcholine Receptors” (University of Kentucky Research Foundation, priority 2005, dated 2015).

T1 sequence (Q05941 23-502): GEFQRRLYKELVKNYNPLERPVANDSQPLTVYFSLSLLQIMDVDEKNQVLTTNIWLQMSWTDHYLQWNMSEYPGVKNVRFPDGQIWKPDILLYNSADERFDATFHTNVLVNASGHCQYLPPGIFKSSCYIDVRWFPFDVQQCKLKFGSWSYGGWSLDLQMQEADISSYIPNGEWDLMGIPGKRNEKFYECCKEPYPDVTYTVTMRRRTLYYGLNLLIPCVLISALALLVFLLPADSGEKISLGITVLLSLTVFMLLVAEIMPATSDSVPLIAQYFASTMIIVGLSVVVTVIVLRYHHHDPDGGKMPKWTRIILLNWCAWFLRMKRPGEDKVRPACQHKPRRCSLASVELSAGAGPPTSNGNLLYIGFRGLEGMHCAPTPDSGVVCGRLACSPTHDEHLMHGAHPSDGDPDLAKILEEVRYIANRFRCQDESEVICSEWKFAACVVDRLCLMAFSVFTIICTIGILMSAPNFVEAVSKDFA

`CCCCc1ccc[n+](CCCC#Cc2cc(C#CCCC[n+]3cccc(CCCC)c3)cc(C#CCCC[n+]3cccc(CCCC)c3)c2)c1` [GZ551A, 1,3,5-tris-[5-(3-butyl-pyridinium)-pent-1-ynyl]-benzene tribromide]: the inhibition at 0.1 µM in assay [1] was determined as 52%. Also, the “inhibition of ACh response at α7 nicotinic receptor subtype (concentration-response, in words)” value (“inhibition of ACh response” for short) in assay [2] is “potent and selective inhibitor”.
For `CN1CCC[C@H]1c1ccc[n+](CCCC#Cc2cc(C#CCCC[n+]3cccc([C@@H]4CCCN4C)c3)cc(C#CCCC[n+]3cccc([C@@H]4CCCN4C)c3)c2)c1` [GZ551B, 1,3,5-tris-{5-[3-(1-methyl-2-S-pyrrolidinyl)pyridinium]-pent-1-ynyl}-benzene tribromide], testing at 0.1 µM in assay [1] gave an inhibition of 63%. The “inhibition of ACh response” value in assay [2] is given as “most potent as an inhibitor of the α7 nicotinic receptor subtype, but was not selective”.
As to `CN1CCC[C@H]1c1ccc[n+](CCCCCc2cc(CCCCC[n+]3cccc([C@@H]4CCCN4C)c3)cc(CCCCC[n+]3cccc([C@@H]4CCCN4C)c3)c2)c1` [GZ558C, 1,3,5-tris-{5-[3-(1-methyl-2-S-pyrrolidinyl)pyridinium]-pentyl}-benzene tribromide], the inhibition at 0.1 µM in assay [1] turned out to be 35%. Further, in assay [2], the “inhibition of ACh response” value is “potent and selective inhibitor”.
